Experimental data as given in ChEMBL document CHEMBL1154813, “Asymmetric synthesis of anticancer beta-lactams via Staudinger reaction: utilization of chiral ketene from carbohydrate” (2010).

Tests used:
Format in all cases: functional
[1] = test system: HT-29; experiment: Cytotoxicity against human HT-29 cells by MTT assay
[2] = test system: PC-3; experiment: Cytotoxicity against human PC3 cells by MTT assay
[3] = test system: K562; experiment: Cytotoxicity against human K562 cells by MTT assay
[4] = test system: MDA-MB-231; experiment: Cytotoxicity against human MDA-MB-231 cells by MTT assay
[5] = Cytotoxicity against human BRO cells by MTT assay
[6] = test system: SK-OV-3; experiment: Cytotoxicity against human SKOV3 cells by MTT assay
[7] = test system: HL-60; experiment: Cytotoxicity against human HL60 cells by MTT assay

Row | Compound | INH [1] [µM] | INH [2] [µM] | INH [3] [µM] | INH [4] [µM] | INH [5] [µM] | INH [6] [µM] | INH [7] [µM]
1 | CC(=O)O[C@H]1C(=O)N(c2cc3c4ccccc4ccc3c3ccccc23)[C@@H]1c1ccccc1 | 8.3 | 15.5 | 6 | 8.5 | 22 | 6.1 | 5.4
2 | CC(=O)O[C@H]1C(=O)N(c2cc3c4ccccc4ccc3c3ccccc23)[C@@H]1c1ccccc1 (racemic) | 2 | 11.1 | 1.1 | 8.7 | 15.7 | 8.9 | 0.7
3 | CC(=O)O[C@@H]1C(=O)N(c2cc3c4ccccc4ccc3c3ccccc23)[C@H]1c1ccccc1 | 0.7 | 1.4 | 1.1 | 0.8 | 6.1 | 6.8 | 0.7
